How the values were obtained:
Type in all cases: in vivo
Spodoptera litura = assay: Test against tobacco cutworm (Spodoptera litura) larvae, leaf dip; conditions: active compound concentration of 100 ppm, third instar larvae on sweet potato leaves, after 7 days; for pest or weed control at 100 ppm: foliar, 168 h, read-out: insecticidal activity
Procedure: (§1) Unless not mentioned otherwise, the test solutions were prepared as follows:
(§2) Containing as solvent: Dimethylformamide, 3 parts by weight; and as emulsifier: Polyoxyethylene alkyl phenyl ether, 1 part by weight
(§3) To prepare the test solution, 1 part by weight of an active compound is mixed with the above-mentioned amount of solvent containing the above-mentioned amount of emulsifier, and the mixture is diluted with water to the desired concentration.
Leaves of sweet potato were immersed in the test solution at the appropriate concentration, and the leaves were dried in air. The leaves were then placed in a petri dish having a diameter of 9 cm, and ten Spodoptera litura at third instar larvae were released therein. The petri dishes were placed in a temperature-controlled chamber at 25° C. After 2 days and 4 days more sweet potato leaves were added. After 7 days, the number of dead larvae was counted to calculate the insecticidal activity. An insecticidal activity of 100% means that all larvae were killed, whereas an insecticidal activity of 0% means that no larva was killed. In the current test, the results of two petri dishes for each treatment were averaged.

Tetranychus urticae = assay: Test against two-spotted spider mite (Tetranychus urticae), spray; conditions: active compound concentration of 500 ppm, adult mites on kidney bean, after 7 days; for pest or weed control at 500 ppm: Tetranychus urticae, 168 h, read-out: acaricidal activity
Procedure: as §1, §2, §3
50 to 100 adult mites of Tetranychus urticae were inoculated to leaves of kidney bean at two-leaf stage planted in a pot of 6 cm in diameter. After one day, test solution at the appropriate concentration was sprayed thereon in a sufficient amount using a spray gun. After the spraying, the plant pot was placed inside a greenhouse, and after 7 days, the acaricidal activity was calculated. An acaricidal activity of 100% means that all mites were killed, whereas an acaricidal activity of 0% means that no mite was killed.

Aulacophora femoralis = assay: Test against cucurbit leaf beetle (Aulacophora femoralis), leaf dip; conditions: active compound concentration of 500 ppm, second instar larvae on cucumber leaves, after 7 days
Procedure: as §1, §2, §3
Leaves of cucumber were immersed in the test solution at the appropriate concentration, and the leaves were dried in air. The leaves were then put in a plastic cup containing sterilized black soil and five Aulacophora femoralis at second instar larvae were released in the cup. The cups were placed in a temperature-controlled chamber at 25° C. After 7 days, the number of dead larvae was counted, and thus the insecticidal activity was calculated. An insecticidal activity of 100% means that all larvae were killed, whereas an insecticidal activity of 0% means that no larva was killed.

Which results are given for N#Cc1ccc2cc(C(=O)Nc3c(Br)cc(C(F)(C(F)(F)F)C(F)(F)F)cc3SC(F)(F)F)ccc2n1 [2-66]?
insecticidal activity (Spodoptera litura): 100%; acaricidal activity (Tetranychus urticae): 100%; insecticidal activity (Aulacophora femoralis): 100%

For CCc1cc(C(F)(C(F)(F)F)C(F)(F)F)cc(CC)c1NC(=O)c1ccc2nc(C#N)ccc2c1 [2-46], which insecticidal activity (Spodoptera litura) is on record?
The insecticidal activity was 100%.

And the acaricidal activity (Tetranychus urticae)?
The acaricidal activity was 100%.

What about the insecticidal activity (Aulacophora femoralis) of the same molecule?
Its insecticidal activity is 100%.

Which acaricidal activity (Tetranychus urticae) does the source give for O=C(Nc1c(I)cc(C(F)(C(F)(F)F)C(F)(F)Br)cc1I)c1ccc2c(ccc[n+]2[O-])c1 (stereo not drawn) [2-199] here?
Its acaricidal activity is 100%.

What about the insecticidal activity (Aulacophora femoralis) of the same molecule?
Its insecticidal activity is 100%.

With N#Cc1ccc2cc(C(=O)Nc3c(Br)cc(C(F)(C(F)(F)F)C(F)(F)F)cc3Br)ccc2n1 [2-64] as the molecule, how does the insecticidal activity (Spodoptera litura) read?
The insecticidal activity was 100%.

What about the acaricidal activity (Tetranychus urticae) of the same molecule?
The acaricidal activity was 100%.

And the insecticidal activity (Aulacophora femoralis)?
The insecticidal activity was 100%.

N#Cc1ccc2cc(C(=O)Nc3c(Br)cc(C(F)(C(F)(F)F)C(F)(F)Br)cc3Br)ccc2n1 (stereo not drawn) [2-197] was tested. Which insecticidal activity (Spodoptera litura) did it give?
Its insecticidal activity is 100%.

What about the acaricidal activity (Tetranychus urticae) of the same molecule?
Its acaricidal activity is 100%.

And the insecticidal activity (Aulacophora femoralis)?
Its insecticidal activity is 100%.

For Cc1cc(C(F)(C(F)(F)F)C(F)(F)Br)cc(C)c1NC(=O)c1ccc2nc(C#N)ccc2c1 (stereo not drawn) [2-191], which insecticidal activity (Spodoptera litura) is on record?
Its insecticidal activity is 100%.

What about the acaricidal activity (Tetranychus urticae) of the same molecule?
The acaricidal activity was 100%.

What about the insecticidal activity (Aulacophora femoralis) of the same molecule?
The insecticidal activity was 100%.

How did the insecticidal activity (Spodoptera litura) turn out when CCc1cc(C2(F)C(F)(F)C(F)(F)C(F)(F)C(F)(F)C2(F)F)cc(C)c1NC(=O)c1ccc2nc(C#N)ccc2c1 [2-130] was run?
Its insecticidal activity is 100%.

And the acaricidal activity (Tetranychus urticae)?
The acaricidal activity was 100%.

What about the insecticidal activity (Aulacophora femoralis) of the same molecule?
The insecticidal activity was 100%.

CCc1cc(C(F)(C(F)(F)F)C(F)(F)C(F)(F)F)cc(C)c1NC(=O)c1ccc2nc(C#N)cc(Br)c2c1 (stereo not drawn) [Compound No. 2-269, 4-bromo-2-cyano-N-[2-ethyl-6-methyl-4-(1,1,1,2,3,3,4,4,4-nonafluorobutan-2-yl)phenyl]quinoline-6-carboxamide] was tested. Which pest or weed control at 100 ppm (Spodoptera litura) did it give?
Its pest or weed control at 100 ppm is 100%.

What about the pest or weed control at 500 ppm (Tetranychus urticae) of the same molecule?
The pest or weed control at 500 ppm was 100%.

What about the pest or weed control at 500 ppm (Aulacophora femoralis; Aulacophora, foliar, 168 h, read-out: insecticidal activity) of the same molecule?
The pest or weed control at 500 ppm was 100%.

Which results are given for N#Cc1ccc2cc(C(=O)Nc3c(Br)cc(C(F)(F)C(F)(F)F)cc3OC(F)F)ccc2n1 [2-221]?
insecticidal activity (Spodoptera litura): 100%; acaricidal activity (Tetranychus urticae): 100%; insecticidal activity (Aulacophora femoralis): 100%

How did the insecticidal activity (Spodoptera litura) turn out when CCc1cc(C(F)(C(F)(F)F)C(F)(F)F)cc(C)c1NC(=O)c1ccc2nc(C#N)ccc2c1 [2-31] was run?
The insecticidal activity was 100%.

And the acaricidal activity (Tetranychus urticae)?
Its acaricidal activity is 100%.

And the insecticidal activity (Aulacophora femoralis)?
The insecticidal activity was 100%.

What does the source list for N#Cc1ccc2cc(C(=O)Nc3c(Br)cc(C(F)(C(F)(F)F)C(F)(F)C(F)(F)F)cc3Br)ccc2n1 (stereo not drawn) [2-110]?
insecticidal activity (Spodoptera litura): 100%; acaricidal activity (Tetranychus urticae): 100%; insecticidal activity (Aulacophora femoralis): 100%

For CCc1cc(C(F)(C(F)(F)F)C(F)(F)F)cc(C)c1NC(=O)c1ccc2nc(Cl)ccc2c1 [2-29], which insecticidal activity (Spodoptera litura) is on record?
The insecticidal activity was 100%.

And the acaricidal activity (Tetranychus urticae)?
Its acaricidal activity is 100%.

What about the insecticidal activity (Aulacophora femoralis) of the same molecule?
The insecticidal activity was 100%.

For Cc1cc(C(F)(C(F)(F)F)C(F)(F)F)cc(OC(F)F)c1NC(=O)c1ccc2nc(C#N)ccc2c1 [2-261], which insecticidal activity (Spodoptera litura) is on record?
Its insecticidal activity is 100%.

And the acaricidal activity (Tetranychus urticae)?
The acaricidal activity was 100%.

What about the insecticidal activity (Aulacophora femoralis) of the same molecule?
Its insecticidal activity is 100%.

With CCc1cc(C(F)(C(F)(F)F)C(F)(F)Br)cc(C)c1NC(=O)c1ccc2ncccc2c1 (stereo not drawn) [2-192] as the molecule, how does the acaricidal activity (Tetranychus urticae) read?
The acaricidal activity was 100%.

And the insecticidal activity (Aulacophora femoralis)?
Its insecticidal activity is 100%.

What does the source list for Cc1cc(C(F)(C(F)(F)F)C(F)(F)C(F)(F)F)cc(C)c1NC(=O)c1ccc2nc(C#N)ccc2c1 (stereo not drawn) [2-87]?
insecticidal activity (Spodoptera litura): 100%; acaricidal activity (Tetranychus urticae): 100%; insecticidal activity (Aulacophora femoralis): 100%

What does the source list for N#Cc1ccc2cc(C(=O)Nc3c(Cl)cc(C(F)(C(F)(F)F)C(F)(F)C(F)(F)F)cc3OC(F)F)ccc2n1 (stereo not drawn) [2-274]?
insecticidal activity (Spodoptera litura): 100%; acaricidal activity (Tetranychus urticae): 100%; insecticidal activity (Aulacophora femoralis): 100%

What does the source list for CCc1cc(C(F)(C(F)(F)F)C(F)(F)C(F)(F)F)cc(C)c1NC(=O)c1ccc2nc(C#N)sc2c1 (stereo not drawn) [Compound No. 4-34, 2-cyano-N-[2-ethyl-6-methyl-4-(1,1,1,2,3,3,4,4,4-nonafluorobutan-2-yl)phenyl]-1,3-benzothiazole-6-carboxamide]?
pest or weed control at 100 ppm (Spodoptera litura): 100%; pest or weed control at 500 ppm (Tetranychus urticae): 100%
